Experimental findings from US6613747B2, “6-O-carbamoyl ketolide antibacterials” (Ortho-McNeil Pharmaceutical, Inc., priority 2000, dated 2003) are described below.

SMILES strings stand for the structures. Values after ≈ are worked out from the molar mass of the structure shown. Where only a bound is given, the exact number is not on record here.

What all share (test): MIC, microdilution broth method (NCCLS)
Common to all, as to type: cell-based
(Broth dilution looks for growth in wells or tubes with falling amounts of substance.)

One assay concerns H. influenzae ATCC49247. The conditions noted are these: E: H. influenzae ATCC49247, 35° C., 16-20 hours. A digest of the protocol:
(§1)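 Cation-adjusted Mueller-Hinton broth held two-fold serial dilutions of each compound. Wells received about 5×10^4 CFU of test organism and were incubated at 35° C. for 16-20 hours.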

In a further assay the test system is S. aureus ATCC29213. The conditions noted are these: B: S. aureus ATCC29213, 35° C., 16-20 hours. The method, boiled down:
as §1

The next assay has as its system S. pneumoniae ATCC49619. The conditions noted are these: D: S. pneumoniae ATCC49619, 35° C., 16-20 hours. A digest of the protocol: as §1
In a further assay the test system is E. coli OC2605. The conditions noted are these: A: E. coli OC2605, 35° C., 16-20 hours. A digest of the protocol: as §1
A further assay concerns E. faecalis ATCC29212. The settings on record: C: E. faecalis ATCC29212, 35° C., 16-20 hours. A digest of the protocol:
as §1

For `CC[C@H]1OC(=O)[C@H](C)C(=O)[C@H](C)[C@@H](O[C@@H]2O[C@H](C)C[C@H](N(C)C)[C@H]2O)[C@](C)(OC(=O)NC/C=C/c2ccc(-c3nccc(C)n3)cc2)C[C@@H](C)C(=O)[C@H](C)[C@H]2NC(=O)O[C@@]21C` [Compound 68], the MIC in the assay with H. influenzae ATCC49247 is 4 µg/mL (≈ 4.71 µM); in the assay on S. aureus ATCC29213 it was 0.25 µg/mL (≈ 0.294 µM); in the assay with S. pneumoniae ATCC49619 it was 0.03 µg/mL (≈ 0.0353 µM); with E. coli OC2605 it was over 16 µg/mL; against E. faecalis ATCC29212, 0.12 µg/mL (≈ 0.141 µM).

For the compound `CCC1OC(=O)C(C)(F)C(=O)C(C)C(OC2OC(C)CC(N(C)C)C2O)C(C)(OC(=O)NCCOCc2ccc(-c3ncccn3)cc2)CC(C)C(=O)C(C)C2NC(=O)OC12C` (stereo not shown) [Compound 108], the MIC is 4 µg/mL (≈ 4.59 µM) with H. influenzae ATCC49247; 0.5 µg/mL (≈ 0.573 µM) against S. aureus ATCC29213; 0.06 µg/mL (≈ 0.0688 µM) with S. pneumoniae ATCC49619; over 16 µg/mL in the assay with E. coli OC2605; 0.25 µg/mL (≈ 0.287 µM) against E. faecalis ATCC29212.

Turning to `CC[C@H]1OC(=O)[C@H](C)C(=O)[C@H](C)[C@@H](O[C@@H]2O[C@H](C)C[C@H](N(C)C)[C@H]2O)[C@](C)(OC(=O)NCCCc2cccnc2)C[C@@H](C)C(=O)[C@H](C)[C@H]2NC(=O)O[C@@]21C` [Compound 12], the MIC is 4 µg/mL (≈ 5.26 µM) with H. influenzae ATCC49247; 1 µg/mL (≈ 1.31 µM) against S. aureus ATCC29213; 0.06 µg/mL (≈ 0.0789 µM) with S. pneumoniae ATCC49619; 16 µg/mL (≈ 21 µM) against E. coli OC2605; 0.12 µg/mL (≈ 0.158 µM) against E. faecalis ATCC29212.

`CC[C@H]1OC(=O)[C@H](C)C(=O)[C@H](C)[C@@H](O[C@@H]2O[C@H](C)C[C@H](N(C)C)[C@H]2O)[C@](C)(OC(=O)NCc2ccc(-c3cncnc3)cc2)C[C@@H](C)C(=O)[C@H](C)[C@H]2NC(=O)O[C@@]21C` [Compound 28]: the MIC came out at 4 µg/mL (≈ 4.94 µM) with H. influenzae ATCC49247; 0.25 µg/mL (≈ 0.309 µM) in the assay with S. aureus ATCC29213; 0.03 µg/mL (≈ 0.037 µM) with S. pneumoniae ATCC49619; 16 µg/mL (≈ 19.8 µM) with E. coli OC2605; 0.06 µg/mL (≈ 0.0741 µM) in the assay with E. faecalis ATCC29212.

Turning to `CCC1OC(=O)C(C)(F)C(=O)C(C)C(OC2OC(C)CC(N(C)C)C2O)C(C)(OC(=O)NCc2ccc(-c3ncccn3)cc2)CC(C)C(=NO)C(C)C2NC(=O)OC12C` (stereo not shown) [Compound 128], the MIC with H. influenzae ATCC49247 was 8 µg/mL (≈ 9.49 µM); with S. aureus ATCC29213, 4 µg/mL (≈ 4.75 µM); with S. pneumoniae ATCC49619, 0.25 µg/mL (≈ 0.297 µM); against E. coli OC2605 it was over 16 µg/mL; in the assay with E. faecalis ATCC29212, 2 µg/mL (≈ 2.37 µM).

As to `CCC1OC(=O)C(C)(O)C(=O)C(C)C(OC2OC(C)CC(N(C)C)C2O)C(C)(OC(=O)NCC=Cc2ccc(-c3cnccn3)cc2)CC(C)C(=O)C(C)C2NC(=O)OC12C` (stereo not shown) [Compound 98], the MIC in the assay with H. influenzae ATCC49247 was 4 µg/mL (≈ 4.69 µM); with S. aureus ATCC29213 it was 0.5 µg/mL (≈ 0.587 µM); with S. pneumoniae ATCC49619, 0.03 µg/mL (≈ 0.0352 µM); against E. coli OC2605, over 16 µg/mL; in the assay with E. faecalis ATCC29212 it was 0.25 µg/mL (≈ 0.293 µM).

Regarding `CC[C@H]1OC(=O)[C@H](C)C(=O)[C@H](C)[C@@H](O[C@@H]2O[C@H](C)C[C@H](N(C)C)[C@H]2O)[C@](C)(OC(=O)NCCN(C)Cc2cccnc2)C[C@@H](C)C(=O)[C@H](C)[C@H]2NC(=O)O[C@@]21C` [Compound 118], the MIC with H. influenzae ATCC49247 is 16 µg/mL (≈ 20.3 µM); in the assay with S. aureus ATCC29213, 8 µg/mL (≈ 10.1 µM); with S. pneumoniae ATCC49619, 0.12 µg/mL (≈ 0.152 µM); in the assay with E. coli OC2605, over 16 µg/mL; in the assay with E. faecalis ATCC29212 it was 1 µg/mL (≈ 1.27 µM).

As to `CC[C@H]1OC(=O)[C@H](C)C(=O)[C@H](C)[C@@H](O[C@@H]2O[C@H](C)C[C@H](N(C)C)[C@H]2O)[C@](C)(OC(=O)NCCOCc2ccc(-c3ncccn3)cc2)C[C@@H](C)C(=O)[C@H](C)[C@H]2NC(=O)O[C@@]21C` [Compound 107], the MIC is 4 µg/mL (≈ 4.68 µM) in the assay with H. influenzae ATCC49247; 0.25 µg/mL (≈ 0.293 µM) in the assay with S. aureus ATCC29213; 0.06 µg/mL (≈ 0.0703 µM) in the assay on S. pneumoniae ATCC49619; over 16 µg/mL against E. coli OC2605; 0.12 µg/mL (≈ 0.141 µM) with E. faecalis ATCC29212.
